Read-outs that look alike come from different tables or passages of the source.
Experiments:
human 5-HT2C receptors = molecular target: T1, human 5-HT2C receptors (Homo sapiens, UniProt P28335); assay: Radioligand competition binding assay at human 5-HT2C receptors
T1 construct: expressed in transfected cells; host or cells: HeLa-5-HT2C cells (membranes)
T1 sequence (P28335 33-458): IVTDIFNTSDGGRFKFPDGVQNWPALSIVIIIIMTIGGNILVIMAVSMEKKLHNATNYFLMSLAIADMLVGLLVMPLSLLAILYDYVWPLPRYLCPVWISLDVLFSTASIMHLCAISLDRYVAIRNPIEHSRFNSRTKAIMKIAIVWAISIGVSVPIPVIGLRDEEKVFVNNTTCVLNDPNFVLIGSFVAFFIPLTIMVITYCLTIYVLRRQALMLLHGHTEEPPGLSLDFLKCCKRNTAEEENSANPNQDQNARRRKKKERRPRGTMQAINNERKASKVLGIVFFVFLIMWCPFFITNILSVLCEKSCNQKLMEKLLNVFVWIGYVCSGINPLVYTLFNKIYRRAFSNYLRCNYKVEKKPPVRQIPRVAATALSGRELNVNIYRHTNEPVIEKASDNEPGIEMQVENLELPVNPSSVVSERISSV

5-HT2A receptors = 5-HT2A receptors (Homo sapiens, UniProt P28223); assay: Radioligand competition binding assay at human 5-HT2A receptors; set-up: expressed in transfected cells; host or cells: CHO-FA4-5-HT2A cells (membranes)
Chain of 5-HT2A receptors (P28223 whole entry): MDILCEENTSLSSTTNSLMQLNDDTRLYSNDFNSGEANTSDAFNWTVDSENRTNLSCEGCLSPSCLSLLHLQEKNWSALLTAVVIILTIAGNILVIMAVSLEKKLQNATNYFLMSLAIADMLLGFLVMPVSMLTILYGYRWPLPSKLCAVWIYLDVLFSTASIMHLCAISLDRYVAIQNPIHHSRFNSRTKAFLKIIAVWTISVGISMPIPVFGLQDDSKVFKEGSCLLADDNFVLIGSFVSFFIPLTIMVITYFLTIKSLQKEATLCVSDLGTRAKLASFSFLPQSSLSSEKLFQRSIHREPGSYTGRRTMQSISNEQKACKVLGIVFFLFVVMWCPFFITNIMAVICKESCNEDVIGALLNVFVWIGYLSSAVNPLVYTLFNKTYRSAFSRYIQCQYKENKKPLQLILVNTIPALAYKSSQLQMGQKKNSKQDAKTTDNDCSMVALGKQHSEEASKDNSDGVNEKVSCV

5-HT2B receptors [1] = molecular target: T2, 5-HT2B receptors (Homo sapiens, UniProt P41595); assay: Functional assay of IPs accumulation at human 5-HT2B receptors; assay type: cell-based
T2 sequence (P41595 whole entry): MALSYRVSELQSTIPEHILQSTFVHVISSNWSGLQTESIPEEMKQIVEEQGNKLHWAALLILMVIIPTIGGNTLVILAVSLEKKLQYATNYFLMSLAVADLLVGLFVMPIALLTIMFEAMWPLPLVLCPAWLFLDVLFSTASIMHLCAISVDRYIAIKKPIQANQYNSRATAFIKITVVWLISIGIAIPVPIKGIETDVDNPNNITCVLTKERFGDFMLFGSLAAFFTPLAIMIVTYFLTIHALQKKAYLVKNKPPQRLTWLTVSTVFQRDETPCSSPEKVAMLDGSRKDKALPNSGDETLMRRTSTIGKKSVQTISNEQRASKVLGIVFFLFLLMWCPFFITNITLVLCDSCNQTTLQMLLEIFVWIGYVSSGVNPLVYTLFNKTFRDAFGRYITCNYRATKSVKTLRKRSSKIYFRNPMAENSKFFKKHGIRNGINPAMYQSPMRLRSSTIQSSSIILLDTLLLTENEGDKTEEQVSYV
Description: After 24 h, growth medium was replaced by serum-free medium containing 10 μCi/mL [^3H]myo-inositol (20.3 Ci/mmol, Perkin-Elmer) for 24 h. […] After the incubation time, assay buffer was discarded and 200 μL of 100 mM formic acid was added to the cells for 30 min at 4 °C and 20 μL of the lysate were transferred to a flexiplate plate (Perkin-Elmer, Waltham, MA, USA) together with 80 μL of a solution of RNA Binding YSi SPA Beads (Perkin-Elmer, Waltham, MA, USA) to measure accumulation of [^3H]IPs (IP1,IP2, and IP3, collectively referred to as IPs).

5-HT2B receptors [2] = molecular target: T2, 5-HT2B receptors; assay: Radioligand competition binding assay at human 5-HT2B receptors
[3] = Absorption and emission spectra (photophysical properties); assay type: physicochemical; conditions: 10 μM solutions
Description: The absorption and emission spectra of the fluorescent 5-HT2 ligands (10 and 12) were determined on 10 μM solutions. The most relevant fluorescent properties are collected in Fig. 5. All of the synthesized derivatives emitted fluorescence in the visible region of the spectrum, with selected fluorescent tags (Fig. 4) providing distinctive properties and excitation wavelengths. The excitation wavelengths varied from 305 to 555 nm, whereas those for emission varied from 398 to 580 nm.

[4] = [3H]Mesulergine, membranes from HeLa-5-HT2C cells
[5] = [3H]Ketanserin, membranes from CHO-FA4-5-HT2A cells, read-out: Binding at 5-HT2 receptors Ki 5-HT2A
[6] = [3H]Mesulergine, membranes from HeLa-5-HT2C cells, read-out: Binding at 5-HT2 receptors Ki 5-HT2C

| Molecule | Binding at 5-HT2 receptors % at 1 μM 5-HT2C (human 5-HT2C receptors; [4]) [%] | Ki (5-HT2A receptors; [5]) [nM] | EC50 (5-HT2B receptors [1]) [nM] | Ki (human 5-HT2C receptors) [nM] | Ki (5-HT2B receptors [2]) [nM] | Δλ (Stokes shift) [3] [nm] | εmax [3] [M⁻¹ cm⁻¹] | λmax Abs [3] [nm] | λmax Em [3] [nm] | Ki (5-HT2A receptors) [nM] | melting point [°C] | Binding at 5-HT2 receptors % at 1 μM 5-HT2A (5-HT2A receptors; at 1 μM, [3H]Ketanserin, membranes from CHO-FA4-5-HT2A cells) [%] | selectivity for the 5-HT2B receptor subtype (5-HT2B receptors [2]; over 5-HT2A and 5-HT2C, from binding Ki) [fold] | Ki (human 5-HT2C receptors; [6]) [nM] |
| --- | --- | --- | --- | --- | --- | --- | --- | --- | --- | --- | --- | --- | --- | --- |
| 3-(2-(2-(2-(2-aminopropyl)-5-iodo-4-methoxyphenoxy)ethoxy)ethoxy)-N-(3-((5-(dimethylamino)naphthalene)-1-sulfonamido)propyl)propanamide [10d] | 3 | 13000 |  |  |  |  |  |  |  |  |  |  |  |  |
| COc1cc(CC(C)N)c(OCCCC(=O)NCCCNS(=O)(=O)c2cccc3c(N(C)C)cccc23)cc1I (stereo not shown) [10a, 4-(2-(2-aminopropyl)-5-iodo-4-methoxyphenoxy)-N-(3-((5-(dimethyl-amino)naphthalene)-1-sulfonamido)propyl)butanamide] |  |  | 89.1 | 273 | 112 | 147 | 2726 | 350 | 497 | 1710 |  |  |  |  |
| COc1cc(CC(C)N)c(OCCCCCCC(=O)NCCCNS(=O)(=O)c2cccc3c(N(C)C)cccc23)cc1I (stereo not shown) [10b, 7-(2-(2-aminopropyl)-5-iodo-4-methoxyphenoxy)-N-(3-((5-(dimethylami-no)naphthalene)-1-sulfonamido)propyl)heptanamide] |  |  | 245 | 295 | 167 |  |  |  |  | 41200 |  |  |  |  |
| COc1cc(CC(C)N)c(OCCCCCCCCCCC(=O)NCCCNS(=O)(=O)c2cccc3c(N(C)C)cccc23)cc1I (stereo not shown) [10c, 11-(2-(2-aminopropyl)-5-iodo-4-methoxyphenoxy)-N-(3-((5-(dimethyl-amino)naphthalene)-1-sulfonamido)propyl)undecanamide] | 1 |  |  |  | 806 |  |  |  |  |  | 171 to 173 | 2 |  |  |
| COc1cc(CC(C)N)c(OCCCC(=O)NCCCNc2ccc([N+](=O)[O-])c3nonc23)cc1I (stereo not shown) [12b, 4-(2-(2-aminopropyl)-5-iodo-4-methoxyphenoxy)-N-(3-((7-nitroben-zo[c][1,2,5]oxadiazol-4-yl)amino)propyl)butanamide] |  |  | 3.27 | 1810 | 91 | 69 | 23881 | 461 | 530 | 3310 | 158 to 160 |  | ≥ 20 |  |
| COc1cc(CC(C)N)c(OCCCC(=O)NCCCN2C(=O)c3c(c4ccccc4c4ccccc34)C2=O)cc1I (stereo not shown) [12c, 4-(2-(2-aminopropyl)-5-iodo-4-methoxyphenoxy)-N-(3-(1,3-dioxo-1,3-dihydro-2H-dibenzo[e,g]isoindol-2-yl)propyl)butanamide] |  |  | 24.9 | 616 | 86.9 | 76 | 2758 | 390 | 466 | 5180 |  |  |  |  |
| COC(=O)c1c(C(=O)OCCCNC(=O)CCCOc2cc(I)c(OC)cc2CC(C)N)c2ccccc2c2ccccc12 (stereo not shown) [12d, 9-(3-(4-(2-(2-aminopropyl)-5-iodo-4-methoxyphenoxy)butanamido)pro-pyl)-10-methyl phenanthrene-9,10-dicarboxylate] |  |  | 25.6 | 1100 | 140 | 98 | 6813 | 305 | 403 | 3980 |  |  |  |  |
| COC(=O)c1c(C(=O)OCCCNC(=O)CCCOc2cc(I)c(OC)cc2CC(C)N)c2cc(F)c(F)cc2c2cc(F)c(F)cc12 (stereo not shown) [12e, 9-(3-(4-(2-(2-aminopropyl)-5-iodo-4-methoxyphenoxy)butanamido)pro-pyl) 10-methyl 2,3,6,7-tetrafluorophenanthrene-9,10-dicarboxylate] |  |  | 9.45 | 2280 | 148 | 83 | 18295 | 315 | 398 | 2570 |  |  |  |  |
| COC(=O)c1c(C(=O)OCCCNC(=O)CCCOc2cc(I)c(OC)cc2CC(C)N)c2cc3c(cc2c2cc4c(cc12)CCC4)CCC3 (stereo not shown) [12f, 5-(3-(4-(2-(2-aminopropyl)-5-iodo-4-methoxyphenoxy)butanamido)pro-pyl)-6-methyl-1,2,3,8,9,10-hexahydrodicyclopenta[b,h]phenanthrene-5,6-dicarbo-xylate] |  |  | 47 | 1030 | 136 | 119 | 12078 | 309 | 428 | 2320 |  |  |  |  |
| COC(=O)c1c(C(=O)OCCCNC(=O)CCCOc2cc(I)c(OC)cc2CC(C)N)c2cc3ccccc3cc2c2cc3ccccc3cc12 (stereo not shown) [12g, 6-(3-(4-(2-(2-aminopropyl)-5-iodo-4-methoxyphenoxy)butanamido)pro-pyl) 7-methyl pentaphene-6,7-dicarboxylate] |  | 3700 |  |  | 283 | 123 | 9977 | 375 | 498 |  | 150 to 152 |  |  | 2280 |
| CCCCCCC(CCCCCC)N1C(=O)c2ccc3c4ccc5c6c(ccc(c7ccc(c2c37)C1=O)c64)C(=O)N(CCCNC(=O)CCCOc1cc(I)c(OC)cc1CC(C)N)C5=O (stereo not shown) [12h, 4-(2-(2-aminopropyl)-5-iodo-4-methoxyphenoxy)-N-(3-(1,3,8,10-tetraoxo-9-(tridecan-7-yl)-3,8,9,10-tetrahydroanthra[2,1,9-def:6,5,10-d′e′f′]diisoquinolin-2(1H)-yl)propyl)butanamide] |  | 15000 |  |  | 1410 | 70 | 27500 | 460 | 530 |  | 169 to 171 |  |  | 7990 |

Reference: article PMC5589878, “Development of Fluorescent Probes that Target Serotonin 5-HT2B Receptors” (Scientific Reports, 2017)
